Measurements published in US8709743B2, “Inhibitors of bacterial nitric oxide synthase, and related screening methods” (Massachusetts Institute of Technology, priority 2007, dated 2014).

Tests used:
[1] = tested on: SK—N—SH human neuroblastoma cells; test: Detection of NO produced by cNOS in estradiol-stimulated SK—N—SH cells (fluorescence microscopy); format: cell-based
Protocol: (§1) FIG. 10 illustrates Cu(FL5) detection of NO produced by cNOS. (a) NO detection in SK—N—SH cells by Cu^II(FL5). Left to right: 25 min incubation of Cu(FL5) (1 μM) and 5, 10, 15, 25 min after co-treatment of Cu(FL5) (1 μM) and 17β-estradiol (100 nM). Images were taken with a Nikon Eclipse TS100 microscope after removing the DMEM media and washing the cells with PBS. Top: fluorescence images; bottom: phase contrast images. (b) Fluorescence intensity (F(t)/FCu(FL5)) from a was plotted against incubation time. (c) NO production with or without of L-NNA. Right: NO detection in cells after 10 min co-incubation of Cu(FL5) (1 μM) and 17β-estradiol (100 nM). Left: NO detection in cells pre-treated with L-NNA for 1 h before addition of Cu(FL5) and 17β-estradiol.
We investigated the ability of Cu(FL5) to detect NO produced in SK—N—SH human neuroblastoma cells under physiological conditions, since constitutive NO synthase (“cNOS”) in this cell line can be activated by estrogen to produce NO. […] The NO-dependent fluorescence response, monitored after simultaneous administration of 17β-estradiol (100 nM) and Cu(FL5) (1 μM) to the cells, was complete within 5 min with a 4.0±0.6-fold increase in fluorescence (FIGS. 10a and b). […]
Firstly, Cu(FL5) visualizes NO in the estradiol-stimulated neuroblastoma cells with brighter fluorescence than DAF-2 DA (o-diaminofluorescein diacetate). […]

[2] = tested on: Raw 264.7 murine macrophage; test: Detection of NO produced by iNOS in LPS and IFN-γ stimulated Raw 264.7 cells (fluorescence microscopy); format: cell-based; details: 12 h incubation period
[3] = FL5 binding of Cu(II): absorption titration with CuCl2 and fluorescence quenching; details: 1 μM FL5 solution, 37° C.
Protocol: Derivatized fluorescein molecules are excellent biosensors because they excite and emit in a region of the visible spectrum that is relatively free of interference. We prepared the fluorescein-based ligand FL5 (FIG. 7) by reacting 7′-chloro-4′-fluorescein-carboxaldehyde with 8-aminoquinaldine. We generated the Cu(II) fluorescein-based NO probe Cu(FL5) (FIG. 4) in situ reacting FL5 (prepared as described below) with CuCl2 in a 1:1 ratio in buffered aqueous solution (50 mM PIPES, pH 7.0, 100 mM KCl). […] A Job's plot was constructed to evaluate the nature of the FL5:Cu(II) complex by following the UV-vis absorption spectral change at 512 nm in pH 7.0 buffered solution. A break at 0.5 indicated the formation of a 1:1 complex.
The fluorescence of a 1 μM FL5 solution was diminished by 18±3% upon introduction of an equimolar quantity of CuCl2 at 37° C. Addition of excess NO to a buffered aqueous Cu(FL5) solution led to an immediate 11.2±1.5-fold increase in fluorescence (FIG. 8). […] The lower detection limit for NO is 5 nM.

[4] = Fluorescence response of the sensor to NO in buffered aqueous solution
[5] = Stability of nitrosated ligand at pH 7.0 (LC-MS); format: physicochemical; details: pH 7.0 buffered aqueous solution
Description: High resolution MS of FL5-^14NO and FL-^15NO were also obtained, showing m/z=600.0729 for FL5-^14NO and 601.0736 for FL5-^15NO, corresponding to [FL5+NO—H+Cl]^− (calcd. m/z 600.0729 and 601.0700).

[6] = biological target: T1, iNOS (Mus musculus, UniProt P29477); test: Attenuation of Cu(FL5) fluorescence response by iNOS inhibitor in stimulated Raw 264.7 cells; format: cell-based, murine
T1 construct: endogenous in cells; host or cells: Raw 264.7 murine macrophage cells (ATCC), stimulated with LPS and IFN-gamma
T1 sequence (P29477 whole entry): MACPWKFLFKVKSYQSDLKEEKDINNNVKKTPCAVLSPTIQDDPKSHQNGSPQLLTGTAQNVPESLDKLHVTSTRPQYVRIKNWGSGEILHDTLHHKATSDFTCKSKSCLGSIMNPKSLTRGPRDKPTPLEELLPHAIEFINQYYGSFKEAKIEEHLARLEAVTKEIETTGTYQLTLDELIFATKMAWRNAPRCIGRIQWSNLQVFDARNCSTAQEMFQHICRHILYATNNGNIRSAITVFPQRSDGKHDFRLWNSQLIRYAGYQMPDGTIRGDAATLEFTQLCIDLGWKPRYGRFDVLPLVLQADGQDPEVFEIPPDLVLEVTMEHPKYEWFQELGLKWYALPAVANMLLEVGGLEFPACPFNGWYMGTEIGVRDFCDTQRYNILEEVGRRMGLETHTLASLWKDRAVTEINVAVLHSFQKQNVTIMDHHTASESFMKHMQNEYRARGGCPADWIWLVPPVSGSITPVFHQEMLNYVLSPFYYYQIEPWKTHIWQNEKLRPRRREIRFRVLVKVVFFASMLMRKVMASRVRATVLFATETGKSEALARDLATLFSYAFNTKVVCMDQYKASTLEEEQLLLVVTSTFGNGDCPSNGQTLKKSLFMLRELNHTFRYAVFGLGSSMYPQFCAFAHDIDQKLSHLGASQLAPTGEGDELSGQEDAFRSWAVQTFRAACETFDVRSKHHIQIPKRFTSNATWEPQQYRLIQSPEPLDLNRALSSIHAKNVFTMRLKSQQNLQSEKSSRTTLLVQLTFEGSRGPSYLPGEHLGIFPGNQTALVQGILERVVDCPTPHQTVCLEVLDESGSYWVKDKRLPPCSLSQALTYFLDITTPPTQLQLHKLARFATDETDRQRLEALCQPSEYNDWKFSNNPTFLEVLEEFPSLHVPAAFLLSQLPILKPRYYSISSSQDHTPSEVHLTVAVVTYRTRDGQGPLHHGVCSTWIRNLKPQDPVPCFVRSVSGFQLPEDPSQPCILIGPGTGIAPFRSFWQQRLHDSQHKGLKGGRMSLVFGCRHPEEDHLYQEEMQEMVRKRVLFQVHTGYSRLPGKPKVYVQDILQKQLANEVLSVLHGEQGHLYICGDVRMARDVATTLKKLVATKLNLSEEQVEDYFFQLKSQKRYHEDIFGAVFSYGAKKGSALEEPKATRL

[7] = tested on: cNOS; test: Attenuation of Cu(FL5) fluorescence response by cNOS inhibitor in SK—N—SH cells; format: cell-based, human; details: SK—N—SH cells pre-treated with L-NNA for 1 h, 17β-estradiol
Protocol: as §1
We investigated the ability of Cu(FL5) to detect NO produced in SK—N—SH human neuroblastoma cells under physiological conditions, since constitutive NO synthase (“cNOS”) in this cell line can be activated by estrogen to produce NO. Estrogen administration leads to an increase in the cytosolic Ca(II) concentration that alters the structure of calmodulin, which in turn activates cNOS. The NO-dependent fluorescence response, monitored after simultaneous administration of 17β-estradiol (100 nM) and Cu(FL5) (1 μM) to the cells, was complete within 5 min with a 4.0±0.6-fold increase in fluorescence (FIGS. 10a and b). […]

CC(=O)Oc1ccc2c(c1)Oc1cc(OC(C)=O)ccc1C21OC(=O)c2cc(N)c(N)cc21 [DAF-2 DA, o-diaminofluorescein diacetate, reference compound]
fluorescence change of treated cells after activation of cNOS ([1]; 30 min after activation of cNOS): only a slight fluorescence increase

Cc1ccc2cccc(NCc3c(O)ccc4c(-c5ccccc5C(=O)O)c5cc(Cl)c(=O)cc-5oc34)c2n1 [FL5, 2-{2-chloro-6-hydroxy-5-[(2-methyl-quinolin-8-ylamino)-methyl]-3-oxo-3H-xanthen-9-yl}-benzoic acid]
turn-on fluorescence in stimulated Raw 264.7 cells without Cu(II) ion [2]: turn-on fluorescence emission was not observed
fluorescence diminished upon introduction of an equimolar quantity of CuCl2 [3]: 18±3%
fluorescence change in stimulated SK—N—SH cells in the absence of Cu(II) ion ([1]; over a period of 25 min): no fluorescence increase
increase in fluorescence when treated with excess NO over 30 min ([4]; no Cu(II): copper-free FL5 or FL5 with Cu(I)): 1.5±0.2 fold

Cc1ccc2cccc(N(Cc3c(O)ccc4c(-c5ccccc5C(=O)O)c5cc(Cl)c(=O)cc-5oc34)N=O)c2n1 [FL5-NO, 2-{2-chloro-6-hydroxy-5-[((2-methylquinolin-8-yl)(nitroso)amino)-methyl]-3-oxo-3H-xanthen-9-yl}-benzoic acid]
stability at pH 7.0 [5]: stable for several days

CNC(=N)NCCC[C@H](N)C(=O)O [L-NMA, N^G-methyl-L-arginine]
Cu(FL5) fluorescence response in the presence of iNOS inhibitor [6]: notably weaker fluorescence response

N=C(NCCC[C@H](N)C(=O)O)N[N+](=O)[O-] [L-NNA, N^G-nitro-L-arginine]
Cu(FL5) fluorescence response in the presence of cNOS inhibitor [7]: notably weaker fluorescence response

o-diaminofluorescein [DAF-2, reference compound]
fluorescence in the presence of NO and the absence of O2 ([4]; over a period of 1 h): unchanged
